Test results from patent publication US10899710B2, “Pyridines and their use in the treatment of cancer” (The United States of America, as represented by the …, priority 2015, dated 2021).
Structures can show the parent of a compound that is named as a salt.

Key:
Assay type in all cases: cell-based
[1] = system: SR; experiment: Growth inhibition GI50, SR; conditions: Homo sapiens, Leukemia
Description: (§1) Cell lines were plated 2000 cells/well in 96-well black optical plates in the presence of 10% FBS media containing 25 nM selenite. The following day cells were treated with various concentrations of the compound of Example 1 (0.1% DMSO final) and incubated for 72 hrs. After the incubation Cell-Quanti Blue reagent was added to each well and incubated for additional 3 hrs. Fluorescence was read ex:530 nm/em:590 nm, and percent of viability was determined using DMSO vehicle and no cell (blank) controls.
(§2) Further results obtained in similar experiments were as indicated below (GI50 refers to concentration of compound yielding 50% growth inhibition; E denotes an exponent to the base 10).

[2] = system: HCT-15; experiment: Growth inhibition GI50, HCT-15; conditions: Homo sapiens, Colon Cancer
Description: as §1, §2

[3] = system: NCI/ADR-RES; experiment: Growth inhibition GI50, NCI/ADR-RES; conditions: Homo sapiens, Ovarian Cancer
Description: as §1, §2

[4] = system: SK-MEL-28; experiment: Growth inhibition GI50, SK-MEL-28; conditions: Homo sapiens, Melanoma
Description: as §1, §2

[5] = system: HS 578T; experiment: Growth inhibition GI50, HS 578T; conditions: Homo sapiens, Breast Cancer
Description: as §1, §2

[6] = system: SN12C; experiment: Growth inhibition GI50, SN12C; conditions: Homo sapiens, Renal Cancer
Description: as §1, §2

[7] = system: CAKI-1; experiment: Growth inhibition GI50, CAKI-1; conditions: Homo sapiens, Renal Cancer
Description: as §1, §2

[8] = system: RXF 393; experiment: Growth inhibition GI50, RXF 393; conditions: Homo sapiens, Renal Cancer
Description: as §1, §2

[9] = system: 786-0; experiment: Growth inhibition GI50, 786-0; conditions: Homo sapiens, Renal Cancer
Description: as §1, §2

[10] = system: MCF7; experiment: Growth inhibition GI50, MCF7; conditions: Homo sapiens, Breast Cancer
Description: as §1, §2

[11] = system: NCI-H23; experiment: Growth inhibition GI50, NCI-H23; conditions: Homo sapiens, Non-Small Cell Lung Cancer
Description: as §1, §2

[12] = system: COLO 205; experiment: Growth inhibition GI50, COLO 205; conditions: Homo sapiens, Colon Cancer
Description: as §1, §2

[13] = system: HT29; experiment: Growth inhibition GI50, HT29; conditions: Homo sapiens, HT-29, Colon Cancer
Description: as §1, §2

[14] = system: U251; experiment: Growth inhibition GI50, U251; conditions: Homo sapiens, U-251, CNS Cancer
Description: as §1, §2

[15] = system: M14; experiment: Growth inhibition GI50, M14; conditions: Homo sapiens, Melanoma
Description: as §1, §2

[16] = system: CCRF-CEM; experiment: Growth inhibition GI50, CCRF-CEM; conditions: Homo sapiens, Leukemia
Description: as §1, §2

[17] = system: MDA-MB-435; experiment: Growth inhibition GI50, MDA-MB-435; conditions: Homo sapiens, Melanoma
Description: as §1, §2

[18] = system: FaDu cell line; experiment: Cell viability inhibition, FaDu cell line; conditions: Homo sapiens, Biological Example 4, 72 hrs
Description: as §1
Using the assays described in Biological Example 1 to assess inhibition of recombinant TrxR1 and GR, the following IC50 values were obtained for the examples described herein. Further, following the protocol described in Biological Example 2, the following IC50 values were obtained for inhibition of cell viability using the FaDu cell line.

[19] = system: OVCAR-3; experiment: Growth inhibition GI50, OVCAR-3; conditions: Homo sapiens, Ovarian Cancer
Description: as §1, §2

[20] = system: HCC-2998; experiment: Growth inhibition GI50, HCC-2998; conditions: Homo sapiens, Colon Cancer
Description: as §1, §2

[21] = system: K-562; experiment: Growth inhibition GI50, K-562; conditions: Homo sapiens, K562, Leukemia
Description: as §1, §2

[22] = system: A549/ATCC; experiment: Growth inhibition GI50, A549/ATCC; conditions: Homo sapiens, Non-Small Cell Lung Cancer
Description: as §1, §2

[23] = system: RPMI-8226; experiment: Growth inhibition GI50, RPMI-8226; conditions: Homo sapiens, Leukemia
Description: as §1, §2

[24] = system: MALME-3M; experiment: Growth inhibition GI50, MALME-3M; conditions: Homo sapiens, Melanoma
Description: as §1, §2

[25] = system: OVCAR-4; experiment: Growth inhibition GI50, OVCAR-4; conditions: Homo sapiens, Ovarian Cancer
Description: as §1, §2

[26] = system: BT-549; experiment: Growth inhibition GI50, BT-549; conditions: Homo sapiens, Breast Cancer
Description: as §1, §2

[27] = system: SF-539; experiment: Growth inhibition GI50, SF-539; conditions: Homo sapiens, CNS Cancer
Description: as §1, §2

[28] = system: SNB-19; experiment: Growth inhibition GI50, SNB-19; conditions: Homo sapiens, CNS Cancer
Description: as §1, §2

[29] = system: DU-145; experiment: Growth inhibition GI50, DU-145; conditions: Homo sapiens, Prostate Cancer
Description: as §1, §2

[30] = system: MOLT-4; experiment: Growth inhibition GI50, MOLT-4; conditions: Homo sapiens, Leukemia
Description: as §1, §2

[31] = system: SW-620; experiment: Growth inhibition GI50, SW-620; conditions: Homo sapiens, Colon Cancer
Description: as §1, §2

[32] = system: SK-OV-3; experiment: Growth inhibition GI50, SK-OV-3; conditions: Homo sapiens, Ovarian Cancer
Description: as §1, §2

[33] = system: HOP-62; experiment: Growth inhibition GI50, HOP-62; conditions: Homo sapiens, Non-Small Cell Lung Cancer
Description: as §1, §2

[34] = system: SF-295; experiment: Growth inhibition GI50, SF-295; conditions: Homo sapiens, CNS Cancer
Description: as §1, §2

[35] = system: HL-60(TB); experiment: Growth inhibition GI50, HL-60(TB); conditions: Homo sapiens, Leukemia
Description: as §1, §2

[36] = system: NCI-H226; experiment: Growth inhibition GI50, NCI-H226; conditions: Homo sapiens, Non-Small Cell Lung Cancer
Description: as §1, §2

[37] = system: SNB-75; experiment: Growth inhibition GI50, SNB-75; conditions: Homo sapiens, CNS Cancer
Description: as §1, §2

[38] = system: T-47D; experiment: Growth inhibition GI50, T-47D; conditions: Homo sapiens, T47D, Breast Cancer
Description: as §1, §2

[39] = system: MDA-MB-231/ATCC; experiment: Growth inhibition GI50, MDA-MB-231/ATCC; conditions: Homo sapiens, Breast Cancer
Description: as §1, §2

[40] = system: LOX IMVI; experiment: Growth inhibition GI50, LOX IMVI; conditions: Homo sapiens, Melanoma
Description: as §1, §2

[41] = system: UACC-62; experiment: Growth inhibition GI50, UACC-62; conditions: Homo sapiens, Melanoma
Description: as §1, §2

[42] = system: UACC-257; experiment: Growth inhibition GI50, UACC-257; conditions: Homo sapiens, Melanoma
Description: as §1, §2

[43] = system: PC-3; experiment: Growth inhibition GI50, PC-3; conditions: Homo sapiens, Prostate Cancer
Description: as §1, §2

[44] = system: HOP-92; experiment: Growth inhibition GI50, HOP-92; conditions: Homo sapiens, Non-Small Cell Lung Cancer
Description: as §1, §2

[45] = system: NCI-H460; experiment: Growth inhibition GI50, NCI-H460; conditions: Homo sapiens, Non-Small Cell Lung Cancer
Description: as §1, §2

[46] = system: UO-31; experiment: Growth inhibition GI50, UO-31; conditions: Homo sapiens, Renal Cancer
Description: as §1, §2

[47] = system: HCT-116; experiment: Growth inhibition GI50, HCT-116; conditions: Homo sapiens, Colon Cancer
Description: as §1, §2

For `COc1ccc([N+](=O)[O-])c(S(=O)(=O)c2ccc(Cl)cc2)n1` [Example 1, 2-((4-Chlorophenyl)sulphonyl)-6-methoxy-3-nitropyridine Hydrochloride], the GI50 [1] was 2.99 µM, the GI50 [2] was 2.05 µM and the GI50 [3] was 4.93 µM. The GI50 [4] was 3.57 µM, the GI50 [5] was 13 µM and the GI50 [6] was 3.82 µM. For the same compound, the GI50 [7] was 1.61 µM, the GI50 [8] was 4.45 µM and the GI50 [9] was 2.51 µM. For the same compound, the GI50 [10] was 2.24 µM, the GI50 [11] was 4.58 µM and the GI50 [12] was 1.96 µM. It also gave a GI50 [13] of 3.34 µM, a GI50 [14] of 8.69 µM and a GI50 [15] of 3.05 µM. The GI50 [16] was 2.93 µM, the GI50 [17] was 1.75 µM and the IC50 [18] was 2.99 µM. The GI50 [19] was 2.33 µM, the GI50 [20] was 8.38 µM and the GI50 [21] was 3.02 µM. For the same compound, the GI50 [22] was 18.5 µM, the GI50 [23] was 3.38 µM and the GI50 [24] was 2 µM. For the same compound, the GI50 [25] was 2.32 µM, the GI50 [26] was 2.75 µM and the GI50 [27] was 3.39 µM. It also gave a GI50 [28] of 13 µM, a GI50 [29] of 9.63 µM and a GI50 [30] of 3.59 µM. The GI50 [31] was 2.06 µM, the GI50 [32] was 15.1 µM and the GI50 [33] was 16.6 µM. The GI50 [34] was 13.1 µM, the GI50 [35] was 6.81 µM and the GI50 [36] was 10.2 µM. For the same compound, the GI50 [37] was 11 µM, the GI50 [38] was 2.12 µM and the GI50 [39] was 2.83 µM. It also gave a GI50 [40] of 1.98 µM, a GI50 [41] of 3.56 µM and a GI50 [42] of 11.3 µM. It also gave a GI50 [43] of 17.3 µM, a GI50 [44] of 2 µM and a GI50 [45] of 14.6 µM. It also gave a GI50 [46] of 2.97 µM and a GI50 [47] of 2.9 µM.
